In the experiment the target is recombinant human AMPK complex 1 (containing α1β1γ1) (Homo sapiens, UniProt Q13131+Q9Y478). Briefly: […] (in vitro AMPK activation assay). As to conditions: for Emax: read-out: % Maximum AMP Activation of human AMPK Complex 1; for EC50: read-out: EC50. The experiment is classed as biochemical.
The mark [1] stands for this setting: recombinant human AMPK complex 1 (α1β1γ1), basal activity subtracted.
Where [2] appears, read: recombinant human AMPK complex 1 (α1β1γ1).

Structures can show the parent of a compound that is named as a salt. Where two headings read alike, the source gives them in different places. Bounds are passed on as bounds.

Chain of recombinant human AMPK complex 1 (containing α1β1γ1) (Q13131 whole entry): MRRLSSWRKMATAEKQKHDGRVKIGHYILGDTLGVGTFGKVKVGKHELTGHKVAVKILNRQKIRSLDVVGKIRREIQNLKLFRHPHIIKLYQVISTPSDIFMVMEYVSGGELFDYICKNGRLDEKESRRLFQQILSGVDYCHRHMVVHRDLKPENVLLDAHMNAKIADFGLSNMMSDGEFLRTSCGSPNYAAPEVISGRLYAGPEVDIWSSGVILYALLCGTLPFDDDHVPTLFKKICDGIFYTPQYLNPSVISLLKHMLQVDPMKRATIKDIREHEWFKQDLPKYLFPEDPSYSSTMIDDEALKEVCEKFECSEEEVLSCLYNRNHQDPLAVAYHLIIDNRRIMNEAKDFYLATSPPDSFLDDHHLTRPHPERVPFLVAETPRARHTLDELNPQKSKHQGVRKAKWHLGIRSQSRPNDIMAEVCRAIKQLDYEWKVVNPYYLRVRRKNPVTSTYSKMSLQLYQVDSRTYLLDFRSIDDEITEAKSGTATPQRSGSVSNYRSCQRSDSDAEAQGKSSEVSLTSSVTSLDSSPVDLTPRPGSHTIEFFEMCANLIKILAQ
Chain of recombinant human AMPK complex 1 (containing α1β1γ1) (Q9Y478 whole entry): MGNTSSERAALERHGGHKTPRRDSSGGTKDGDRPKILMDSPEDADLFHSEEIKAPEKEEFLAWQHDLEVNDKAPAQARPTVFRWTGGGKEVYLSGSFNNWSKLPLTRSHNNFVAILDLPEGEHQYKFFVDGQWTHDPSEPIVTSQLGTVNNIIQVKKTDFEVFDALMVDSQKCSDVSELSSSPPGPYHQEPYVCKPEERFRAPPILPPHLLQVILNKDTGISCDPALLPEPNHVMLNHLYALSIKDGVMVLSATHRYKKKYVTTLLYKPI
Chain of recombinant human AMPK complex 1 (containing α1β1γ1) (P54619 whole entry partner): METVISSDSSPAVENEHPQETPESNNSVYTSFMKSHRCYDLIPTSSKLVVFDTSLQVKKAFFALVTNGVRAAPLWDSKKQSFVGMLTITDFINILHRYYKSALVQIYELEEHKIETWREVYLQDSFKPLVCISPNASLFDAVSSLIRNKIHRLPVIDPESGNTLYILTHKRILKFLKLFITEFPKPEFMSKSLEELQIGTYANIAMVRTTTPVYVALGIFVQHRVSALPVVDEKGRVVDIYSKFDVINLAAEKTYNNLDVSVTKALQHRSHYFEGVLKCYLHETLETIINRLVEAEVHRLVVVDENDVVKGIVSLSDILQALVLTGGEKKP

On to `Cc1ccc(Oc2nc3cc(-c4ccc5[nH]c(=O)ccc5c4)c(Cl)cc3[nH]2)cc1C(=O)O` [Example 233, 5-[6-Chloro-5-(2-oxo-1,2-dihydro-quinolin-6-yl)-1H-benzoimidazol-2-yloxy]-2-methyl-benzoic acid], for which the Emax under setting [1] was above 80%.

As to `Cc1ccc(Oc2nc3cc(-c4ccc5c(ccc(=O)n5C)c4)c(Cl)cc3[nH]2)cc1C(=O)O` [Example 234, 5-[6-Chloro-5-(1-methyl-2-oxo-1,2-dihydro-quinolin-6-yl)-1H-benzoimidazol-2-yloxy]-2-methyl-benzoic acid], under setting [1], the Emax is above 80%.

Consider `Cc1ccc(Oc2nc3cc(-c4ccc5c(c4)n(C)c(=O)n5C)c(Cl)cc3[nH]2)cc1C(=O)O` [Example 235, 5-(6-Chloro-1′,3′-dimethyl-2′-oxo-2′,3′-dihydro-1H,1′H-[5,5′]bibenzoimidazolyl-2-yloxy)-2-methyl-benzoic acid], for which the Emax under setting [1] was above 80%.

Turning to `Cc1ccc(Oc2nc3cc(-c4ccc(C(=O)N5CCC(O)CC5)cc4)c(Cl)cc3[nH]2)cc1C(=O)O` [Example 236, 5-{6-Chloro-5-[4-(4-hydroxy-piperidine-1-carbonyl)-phenyl]-1H-benzoimidazol-2-yloxy}-2-methyl-benzoic acid], under setting [2], the half-maximal effective concentration (EC50) (in general, the concentration that produces a half-maximal response) is 10 nM.

Regarding `Cc1ccc(Oc2nc3cc(-c4ccc5c(c4)CCNC5=O)c(Cl)cc3[nH]2)cc1C(=O)O` [Example 237, 5-[6-Chloro-5-(1-oxo-1,2,3,4-tetrahydro-isoquinolin-6-yl)-1H-benzoimidazol-2-yloxy]-2-methyl-benzoic acid], the Emax under setting [1] is above 80%.

For `Cc1ccc(Oc2nc3cc(-c4ccc5ccnc(O)c5c4)c(Cl)cc3[nH]2)cc1C(=O)O` [Example 238, 5-[6-Chloro-5-(1-hydroxy-isoquinolin-7-yl)-1H-benzoimidazol-2-yloxy]-2-methyl-benzoic acid], the Emax under setting [1] was above 80%.

With `Cc1ccc(Oc2nc3cc(-c4ccc(C(C)(C)C#N)cc4)c(Cl)cc3[nH]2)cc1C(=O)O` [Example 239, 5-{6-Chloro-5-[4-(cyano-dimethyl-methyl)-phenyl]-1H-benzoimidazol-2-yloxy}-2-methyl-benzoic acid], the Emax under setting [1] was above 80%.

Consider `Cc1ccc(Oc2nc3cc(-c4ccc5c(C)n[nH]c5c4)c(Cl)cc3[nH]2)cc1C(=O)O` [Example 240, 5-[6-Chloro-5-(3-methyl-1H-indazol-6-yl)-1H-benzoimidazol-2-yloxy]-2-methyl-benzoic acid], for which the Emax under setting [1] was above 80%.

For `Cc1ccc(Oc2nc3cc(-c4ccc(C(=O)N(C)C)cc4)c(Cl)cc3[nH]2)cc1C(=O)O` [Example 241, 5-[6-Chloro-5-(4-dimethylcarbamoyl-phenyl)-1H-benzoimidazol-2-yloxy]-2-methyl-benzoic acid], the Emax under setting [1] is above 80%.

`Cc1ccc(Oc2nc3cc(-c4ccc(C(N)=O)cc4)c(Cl)cc3[nH]2)cc1C(=O)O` [Example 242, 5-[5-(4-Carbamoyl-phenyl)-6-chloro-1H-benzoimidazol-2-yloxy]-2-methyl-benzoic acid]: under setting [1], the Emax is above 80%.

Consider `Cn1ccc2cc(-c3cc4nc(Oc5ccc(CC(=O)O)cc5)[nH]c4cc3Cl)ccc21` [Example 243, {4-[6-Chloro-5-(1-methyl-1H-indol-5-yl)-1H-benzoimidazol-2-yloxy]-phenyl}-acetic acid], for which the Emax under setting [1] was above 80%.

Take `CN1CCOc2cc(-c3cc4nc(Oc5ccc(CC(=O)O)cc5)[nH]c4cc3Cl)ccc21` [Example 244, {4-[6-Chloro-5-(4-methyl-3,4-dihydro-2H-benzo[1,4]oxazin-7-yl)-1H-benzoimidazol-2-yloxy]-phenyl}-acetic acid]: the Emax under setting [1] is above 80%.

Turning to `COc1ccc2cc(-c3cc4nc(Oc5ccc(CC(=O)O)cc5)[nH]c4cc3Cl)ccc2c1` [Example 245, {4-[6-Chloro-5-(6-methoxy-naphthalen-2-yl)-1H-benzoimidazol-2-yloxy]-phenyl}-acetic acid], under setting [1], the Emax was above 80%.

For `Cc1ccc(Oc2nc3cc(-c4ccc(-c5ccn[nH]5)cc4)c(F)cc3[nH]2)cc1C(=O)O` [Example 246, 5-{6-Fluoro-5-[4-(2H-pyrazol-3-yl)-phenyl]-1H-benzoimidazol-2-yloxy}-2-methyl-benzoic acid], under setting [1], the Emax was above 80%.

As to `Cc1ccc(Oc2nc3cc(-c4ccc(N5CCOCC5)cc4)c(F)cc3[nH]2)cc1C(=O)O` [Example 247, 5-[6-Fluoro-5-(4-morpholin-4-yl-phenyl)-1H-benzoimidazol-2-yloxy]-2-methyl-benzoic acid], the Emax under setting [1] was above 80%.

Turning to `Cc1ccc(Oc2nc3cc(-c4ccc5c(ccn5C)c4)c(F)cc3[nH]2)cc1C(=O)O` [Example 249, 5-[6-Fluoro-5-(1-methyl-1H-indol-5-yl)-1H-benzoimidazol-2-yloxy]-2-methyl-benzoic acid], the Emax under setting [1] is above 80%.

As for `Cc1ccc(Oc2nc3cc(-c4cnc(N5CCCC5)cn4)c(F)cc3[nH]2)cc1C(=O)O` [Example 250, 5-[6-Fluoro-5-(5-pyrrolidin-1-yl-pyrazin-2-yl)-1H-benzoimidazol-2-yloxy]-2-methyl-benzoic acid], the Emax under setting [1] is above 80%.

For the molecule `Cc1ccc(Oc2nc3cc(-c4ccc5c(ccn5CC5CC5)c4)c(Cl)cc3[nH]2)cc1C(=O)O` [Example 252, 5-[6-Chloro-5-(1-cyclopropylmethyl-1H-indol-5-yl)-1H-benzoimidazol-2-yloxy]-2-methyl-benzoic acid], the Emax under setting [1] is above 80%.

Turning to `Cc1ccc(Oc2nc3cc(-c4ccc5c(ccn5C(C)C)c4)c(Cl)cc3[nH]2)cc1C(=O)O` [Example 253, 5-[6-Chloro-5-(1-isopropyl-1H-indol-5-yl)-1H-benzoimidazol-2-yloxy]-2-methyl-benzoic acid], the Emax was above 80%.

On to `CCn1ccc2cc(-c3cc4nc(Oc5ccc(C)c(C(=O)O)c5)[nH]c4cc3Cl)ccc21` [Example 254, 5-[6-Chloro-5-(1-ethyl-1H-indol-5-yl)-1H-benzoimidazol-2-yloxy]-2-methyl-benzoic acid], for which, under setting [1], the Emax is above 80%.

With `COc1cc(-c2cc3nc(Oc4ccc(C)c(C(=O)O)c4)[nH]c3cc2Cl)ccc1O` [Example 255, 2-(3-carboxy-4-methylphenoxy)-6-chloro-5-(4-hydroxy-3-methoxyphenyl)-1H-3,1-benzimidazol-3-ium trifluoroacetate], under setting [1], the Emax was above 80%.

As to `Cc1ccc(Oc2nc3cc(-c4cnc(N5CCCC5)nc4)c(Cl)cc3[nH]2)cc1C(=O)O` [Example 257, 2-(3-carboxy-4-methylphenoxy)-6-chloro-5-(2-pyrrolidin-1-yl-pyrimidin-5-yl)-1H-3,1-benzimidazol-3-ium trifluoroacetate], the Emax under setting [1] is above 80%.

For `Cc1ccc(Oc2nc3cc(-c4ccc(C5CCCC5)cc4)c(Cl)cc3[nH]2)cc1C(=O)O` [Example 258, 2-(3-carboxy-4-methylphenoxy)-6-chloro-5-(4-cyclopentylphenyl)-1H-3,1-benzimidazol-3-ium trifluoroacetate], the Emax under setting [1] was above 80%.

`COc1ccc(-c2cc3nc(Oc4ccc(C)c(C(=O)O)c4)[nH]c3cc2Cl)cc1OC` [Example 260, 2-(3-carboxy-4-methylphenoxy)-6-chloro-5-(3,4-dimethoxyphenyl)-1H-3,1-benzimidazol-3-ium trifluoroacetate]: the Emax under setting [1] is above 80%.

Consider `Cc1cc2cc(-c3cc4nc(Oc5ccc(C)c(C(=O)O)c5)[nH]c4cc3Cl)ccc2[nH]1` [Example 261, 5-{[6-chloro-5-(2-methyl-1H-indol-5-yl)-1H-benzimidazol-2-yl]oxy}-2-methylbenzoic acid], for which the Emax under setting [1] was above 80%.

`Cc1ccc(Oc2nc3cc(-c4ccc(C5(CO)CC5)cc4)c(Cl)cc3[nH]2)cc1C(=O)O` [Example 262, 5-[(6-chloro-5-{4-[1-(hydroxymethyl)cyclopropyl]phenyl}-1H-benzimidazol-2-yl)oxy]-2-methylbenzoic acid]: the concentration giving a half-maximal response (EC50) under setting [2] was determined as 3 nM.

Regarding `Cc1ccc(Oc2nc3cc(-c4ccc5c(ccn5CCO)c4)c(Cl)cc3[nH]2)cc1C(=O)O` [Example 263, 5-({6-chloro-5-[1-(2-hydroxyethyl)-1H-indol-5-yl]-1H-benzimidazol-2-yl}oxy)-2-methylbenzoic acid], the Emax under setting [1] was above 80%.

On to `Cc1ccc(Oc2nc3cc(-c4ccc(C5(O)CC5)cc4)c(Cl)cc3[nH]2)cc1C(=O)O` [Example 264, 5-{6-Chloro-5-[4-(1-hydroxy-cyclopropyl)-phenyl]-1H-benzoimidazol-2-yloxy}-2-methyl-benzoic acid], for which the Emax under setting [1] was above 80%.

As to `Cc1ccc(Oc2nc3cc(-c4ccc5c(C)noc5c4)c(Cl)cc3[nH]2)cc1C(=O)O` [Example 265, 5-[6-chloro-5-(3-methyl-benzo[d]isoxazol-6-yl)-1H-benzoimidazol-2-yloxy]-2-methyl-benzoic acid], the Emax under setting [1] was above 80%.

As to `Cc1ccc(Oc2nc3cc(-c4ccc5c(c4)CCC5=O)c(Cl)cc3[nH]2)cc1C(=O)O` [Example 266, 5-[6-Chloro-5-(1-oxo-indan-5-yl)-1H-benzoimidazol-2-yloxy]-2-methyl-benzoic acid], the Emax under setting [1] was above 80%.

For `Cc1ccc(Oc2nc3cc(-c4ccc(C5CC5)c(N(C)C)c4)c(Cl)cc3[nH]2)cc1C(=O)O` [Example 267, 5-[6-Chloro-5-(4-cyclopropyl-3-dimethylamino-phenyl)-1H-benzoimidazol-2-yloxy]-2-methyl-benzoic acid], the Emax under setting [1] was above 80%.

Consider `Cc1ccc(Oc2nc3cc(-c4ccc(C(C)C)c5c4CCN5C)c(Cl)cc3[nH]2)cc1C(=O)O` [Example 268, 5-[6-Chloro-5-(7-isopropyl-1-methyl-2,3-dihydro-1H-indol-4-yl)-1H-benzoimidazol-2-yloxy]-2-methyl-benzoic acid], for which, under setting [1], the Emax is above 80%.

As for `COC(=O)c1ccc(-c2cc3nc(Oc4ccc(C)c(C(=O)O)c4)[nH]c3cc2Cl)c2ccn(C)c12` [Example 269, 4-[2-(3-Carboxy-4-methyl-phenoxy)-6-chloro-1H-benzoimidazol-5-yl]-1-methyl-1H-indole-7-carboxylic acid methyl ester], the Emax under setting [1] was above 80%.

Values taken from patent US8394969B2, “Cyclic benzimidazole derivatives useful as anti-diabetic agents” (Merck Sharp & Dohme Corp., priority 2008, dated 2013).
